B1: Geminin-SMC: conjugate of a compound of formula Ic with the pre-RC assembly repressor protein Geminin (209 aa) (conjugate, UniProt O75496 1-209, looked up)
chain: MNPSMKQKQEEIKENIKNSSVPRRTLKMIQPSASGSLVGRENELSAGLSKRKHRNDHLTSTTSSPGVIVPESSENKNLGGVTQESFDLMIKENPSSQYWKEVAEKRRKALYEALKENEKLHKEIEQKDNEIARLKKENKELAEVAEHVQYMAELIERLNGEPLDNFESLDNQEFDSEEETVEDSLVEDSEIGTCAEGTVSSSTDAKPCI
modifications: full-length conjugated to SMC compound of formula Ic
B2: His6-Geminin: recombinant His6-Geminin, unconjugated form of Geminin (protein, UniProt O75496 1-209, looked up)
Geminin: B1 chain
modifications: His6 tag

Legend:
[1] = tested on: CD3+ cells from peripheral blood mononuclear cells; experiment: Delivery of FITC to primary suspension cells, FACS analysis; format: cell-based; settings: primary human CD3+ cells, 10 µM, 15 minutes
Procedure: To determine whether SMCs deliver small molecules to primary human cells, CD3+ cells were isolated by MACS separation from freshly harvested peripheral blood mononuclear cells. This purified cell population was treated with 10 µM of each compound for 15 minutes. Cells were then washed in PBS and analyzed by FACS.

U2OS cells = experiment: Delivery of FITC, FACS analysis of live cells; format: cell-based, human; settings: 10 µM, 15 minutes
Procedure: The efficiency of delivery of FITC by these guanidine carriers was tested by FACS analysis. U2OS cells were treated with at a concentration of 10 µM with each of the compounds indicated for 15 minutes, and then harvested by trypsinization, and washed in PBS. The live cells were then subjected to FACS analysis.

[2] = tested on: Human osteosarcoma cells (U2OS); experiment: Uptake and sub-cellular localization by confocal microscopy; format: cell-based; settings: 10 μM, 10 minutes incubation, no fixation
Procedure: In order to observe the ability of the di-guanidine and tetra-guanidine compounds to transport small molecules, they were coupled to FITC, which emits light at 514 nm after laser excitation at 492 nm. Human osteosarcoma cells (U2OS) were cultured on glass coverslips and incubated for 10 minutes with each compound to a final concentration of 10 μM. They were compared to FITC conjugated to TAT and FITC alone. After incubation, cells were rinsed in PBS and mounted, without fixation, onto slides and visualized by confocal microscopy. […] Cells were visualized under higher magnification (63×), to assess sub-cellular localization of the FITC.

NIH3T3 fibroblasts [3] = experiment: S-phase assay (cellular DNA synthesis, BrdU incorporation); format: cell-based, mouse
Procedure: (§1) A) NIH3T3 fibroblasts were incubated for one hour with 10 μM recombinant His6-Geminin or 10 μM Geminin-SMC conjugate. Cells were fixed, permeabilised and stained with a polyclonal rabbit anti-Geminin primary, a FITC-conjugated anti-rabbit secondary and counterstained with DAPI. […] B) NIH3T3 fibroblasts were driven into quiescence by density-dependent growth arrest and after 5 days were released back into the cell cycle by subculturing into fresh growth medium. 8 hours after release from quiescence 10 μM of Geminin-SMC was added to the cells. At 21 hours following release cells were pulse-labelled for one hour with 50 μM BrdU. Subsequently cells were fixed, permeabilised and stained with FITC-conjugated anti-BrdU and counterstained with propidium iodide. In a control population 68% of cells were able to re-enter the cell cycle following release whilst in the presence of Geminin-SMC replication dropped by 47% respectively.
Essentially the system is set up as follows: Mouse or human fibroblasts are arrested in quiescence (G0) by contact inhibition.
The quiescent fibroblasts are then subcultured at lower density to release fibroblasts from G0. Re-entry into the DNA synthesis phase (S phase) occurs 21 hours after the release. Pre-replicative complexes (pre-RCs) essential for unwinding of the DNA helix prior to DNA synthesis are assembled at replication origins 16-18 hrs after the release from G0.
One sample of cells is untreated and the other is treated by exposure to an SMC-conjugate according to the present invention. Treatment takes place before pre-RC assembly, preferably at 5-10 hours after release from G0.
The ability of cells to start S phase is monitored with a BrdU pulse at 21 hours. BrdU becomes incorporated into DNA during DNA synthesis and is thus a marker for entry into S phase. BrdU incorporation is then assayed and treated cells are compared with non-treated cells.
For synchronisation in G0, NIH3T3 fibroblasts are seeded at high density and driven into density-dependent growth arrest. […]
DNA synthesis is monitored by pulse labelling cells 21 h after release from G0 for 1 h with 50 μM BrdU. […]
The percentage of cells undergoing DNA replication is determined from images obtained by confocal fluorescence microscopy on a Leica TCS SP confocal microscope. […]
Plasmids expressing […] are microinjected into the nuclei of NIH3T3 fibroblasts at the treatment time 8 hours after release from density-dependent growth arrest in G0. The ability of cells to initiate DNA replication was assessed by pulse labelling cells 19 hours after release from G0 for 1 hour with bromodeoxyuridine (BrdU). Expression of E1̂E4 protein and incorporation of BrdU was monitored by confocal immunofluorescence microscopy. […]

NIH3T3 fibroblasts [4] = experiment: Uptake of Geminin-SMC conjugate, anti-Geminin immunofluorescence; format: cell-based, mouse; settings: 10 μM, one hour
Procedure: as §1

Molecule	cells fluorescent [1] [%]	cells fluorescent above the background auto-fluorescence (U2OS cells) [%]	sub-cellular localization of the FITC at higher magnification (63×) [2]	drop of replication (BrdU incorporation) (NIH3T3 fibroblasts [3]; 10 μM added 8 hours after release from quiescence, BrdU pulse at 21 hours, control population 68% re-entered cell cycle) [%]	number of cells entering S phase (NIH3T3 fibroblasts [3]; 10 fM to 10 μM, treatment 8 hours after G0 release)	DNA synthesis as monitored by S-phase assay (NIH3T3 fibroblasts [3]; treatment 8 hours after G0 release, BrdU pulse at 21 hours, concentration range per example (10 fM to 30 μM))	uptake of SMC-conjugate into the cells (NIH3T3 fibroblasts [3]; treatment 8 hours after G0 release, concentration range per example (10 fM to 30 μM))	FITC staining (anti-Geminin) within the cells (NIH3T3 fibroblasts [4])
N=C(N)NCCOc1c(CNC(=S)Nc2ccc3c(c2)C(=O)OC32c3ccc(O)cc3Oc3cc(O)ccc32)ccc(-c2ccccc2)c1OCCNC(=N)N [di-guanidine-FITC, 2-[2,3-bis(2-guanidino-ethyloxy)-biphenyl-4-ylmethyl]-thioureido-fluorescein]	88	80	both nuclear and cytoplasmic fluorescence	–	–	–	–	–
N=C(N)NCCOc1cccc(-c2ccc(CNC(=S)Nc3ccc4c(c3)C(=O)OC43c4ccc(O)cc4Oc4cc(O)ccc43)c(OCCNC(=N)N)c2OCCNC(=N)N)c1OCCNC(=N)N [tetra-guanidine-FITC, [2,3,2′,3′-Tetra(2-guanidino-ethyloxy)-biphenyl-4-ylmethyl]-thioureido-fluorescein]	62	80	intense nuclear fluorescence	–	–	–	–	–
B1	–	–	–	47	dramatic reduction	inhibits DNA synthesis	efficiently taken into the cells	strong FITC staining
B2	–	–	–	–	–	–	–	no FITC staining

Reference: patent US20080139493A1, “Bi- or Tetra-Guanidino-Biphenyl Compounds as Small Molecule Carriers” (priority 2004, published 2008)
